Data published in patent publication US20150335678A1, “METHOD OF ACTIVATING STEM CELLS IN AN ANIMAL AND THE USE OF CHLORINE DIOXIDE FOR PREPARING MEDICINES FOR ACTIVATING STEM CELLS IN AN ANIMAL” (priority 2012, published 2015).

Tests used:
[1] = system: CD34-positive mononuclear cells; experiment: CD34-positive mononuclear cells in peripheral blood of lower limb DVT patients, flow cytometry (Example 2); format: in vivo, human; conditions: before administration 0.38 ± 0.42, 14 days
From the text: The subjects consisted of 14 male and 6 female lower limb DVT patients with the unilateral limb suffer from the illness, aged from 59 to 76 years old (average age: 67.2 years old). The purpose of the clinical test was explained to all subjects and their consent was obtained before conducting the clinical test.
The first solution was a mixed solution made of sodium chlorite with the concentration of 7.47% and sodium chloride with the concentration of 1.59% with deionized water; the second solution was made of citric acid with the concentration of 16.7% with deionized water. Same volume of solutions were taken out from different vessels with different volumes and mixed up. Allow the solution to mix for 3-5 minutes and dilute it 5 times with normal saline, then filter it with 0.22 μm filter membrane of double-deck. The solution was immediately put into injector. The solution was prepared once being used. […]
Five ml of peripheral blood was collected from the median cubital vein of the forearm of each patient using low molecular weight heparin anticoagulant before administration (before initial administration) and on day 7 and 14 after administration, and the collected blood was immediately stored at 4° C. and measured within 6 hours after collection. […]

[2] = system: GFAP-positive cells (astrocytes), NeuN-positive cells (immature neurons); experiment: NeuN-positive, GFAP-positive and BrdU-positive/GFAP-positive cells in the SVZ region; format: in vivo, Sprague-Dawley rats
Protocol: Male Sprague-Dawley rats with the age of 12 weeks and weight of 250^˜280 g were used in the experiment after acclimating for a week.
A middle cerebral artery occlusion model was first established in compliance with the method of Longa E Z et al. (Longa E Z, et al. Reversible middle cerebral artery occlusion without craniectomy in rats. Stroke 20:84-91, 1989). More specifically, 0.36 g/kg of 10% chloral hydrate was administered intraperitoneally to rats which had been fasted for 12 hours (although given free access to water) to anesthetize the rats. Next, a midline incision was made in the neck to expose the right common carotid artery. Then, the internal carotid artery and external carotid artery were separated, the posterior carotid artery, which is a branch of the external carotid artery, and the thyroidea arteria were coagulated and severed, the external carotid artery was ligated at the branch of the lingual artery and maxillary artery, a small puncture was formed in the external carotid artery, 4-0 Nylon suture was passed through the common carotid artery from the puncture, and gradually inserted into the internal carotid artery until there was resistance. The length of the Nylon suture was about 18^˜20 mm from the branch of the common carotid artery. As a result of occluding the middle cerebral artery with Nylon suture, an ischemic state was applied for 2 hours to create a middle cerebral artery occlusion model.
A cerebral ischemia/reperfusion injury model was established by removing the Nylon suture from the middle cerebral artery of the occlusion model and following reperfusion of blood.
The first solution was a mixed solution made of sodium chlorite with the concentration of 7.47% and sodium chloride with the concentration of 1.59% with deionized water; the second solution was made of citric acid with the concentration of 16.7% with deionized water. Same volume of solutions were taken out from different vessels with different volumes and mixed up. Allow the solution to mix for 3-5 minutes and dilute it five times with normal saline, and then filter it with 0.22 μm filter membrane of double-deck. The solution was immediately put into injector. The solution was prepared once being used.
Treatment group (120 rats): A cerebral ischemia/reperfusion injury model was established for the rats already. To administer chlorine dioxide solution everytime that prepared from procedure (3) through carotid artery after the second day the model has established, once a day for total ten days.
On day 5, 6, 12, 13, 19 and 20 after the model established, 50 mg/kg BrdU was injected intraperitoneally into 30 rats in each group. The rats were autopsied on day 7, 14 and 21 after the model established for preparation of frozen brain sections. The presences of NeuN-positive cells by immunochemical stain, glial fibrillory acidic protein (GFAP)-positive cells by immunochemical stain, and BrdU-Positive/GFAP Positive Cells by double-immunofluorescent stain in the SVZ region were analyzed. NeuN is a marker expressed on the immature neurons which are differentiated from neural stem cells. GFAP is a marker expressed on astrocytes which are also differentiated from neural stem cells.
The presence of NeuN-positive cells was analyzed using goat anti-NeuN monoclonal antibody. The presence of GFAP-positive cells was analyzed using goat anti-GFAP polyclonal antibody. The presence of BrdU-positive/GFAP-positive cells was analyzed by double-immunofluorescent stain using a combination of primary antibody of mouse anti-rat BrdU monoclonal antibody and secondary antibody of Rho-labeled rabbit anti-mouse antibody, and a combination of primary antibody of goat anti-GFAP polyclonal antibody and secondary antibody of FITC-labeled rabbit anti-goat antibody.
BRt(%)=(Bt−St)/(Mt−St)×100

alopecia areata = experiment: Alopecia areata patients, topical solution with dimethyl sulfoxide (Example 4); format: in vivo, human
Protocol: The first solution was a mixed solution made of sodium chlorite with the concentration of 7.47% and sodium chloride with the concentration of 1.59% with deionized water; the second solution was made of citric acid with the concentration of 16.7% with deionized water.
Same volume of solutions were taken out from different vessels with different volumes and put into the suitable glass or plastic cups prepared. Allow the solution to mix for 3-5 minutes and then filter the solution with 0.22 μm filter membrane of double-deck, dimethyl sulfoxide was added in a ratio of 1:1, and then smear solution over the alopecia areata with the swab, waiting for 1-2 hours before cleaning the head, the drug was administered once a day according to the method. The first period lasted for 15-25 days, then the drug was stopped for 2-5 months; The second period lasted for 15-25 days in the light of the situation.
The subjects consisted of 11 male alopecia areata patients and a patient (the patients are between 22-40 years old.) They administered the activating agent of stem cell as volunteers, see Table 12.

[3] = system: chronic and allergic rhinitis; experiment: Chronic and allergic rhinitis patients vs ephedrine nose drops (Example 9); format: in vivo, human
From the text: The subjects consisted of 30 patients with chronic and allergic rhinitis, and half of them were randomly assigned to treatment group and control group.
The first solution was a mixed solution made of sodium chlorite with the concentration of 7.47% and sodium chloride with the concentration of 1.59% with deionized water; the second solution was made of citric acid with the concentration of 16.7% with deionized water. The solution comprising chlorine dioxide was made by mixing up the two solutions above. To make 50 ml solution for each patient each time and put it into a bottle and stores it in the refrigerator. 2-5 ml of solution for each patient each time was taken out and put into a beaker. The patients would breathe aiming at the cup-mouth for one to two minutes, and then the solution was diluted five to hundred times with normal saline before being put into nasal spray. To spray on each side of nose for three to five times. It was conducted once a day for consecutive 5 to 10 days. Then the administration was stopped, reuse the administration method for recurrence. The course of treatment was three months. The administration for patients in control group: use the ephedrine nose drops three times a day with three drops on each side each time for consecutive seven days. Reuse the administration method for recurrence. The course of treatment was three months.
Evaluation of the effects: The effects can be divided into excellent, effective and ineffective according to symptoms and signs. 1) Excellent: subjective symptoms disappear and positive sign become normal. 2) Effective: subjective symptoms and positive sign decrease obviously. […] Total effective rate(%)=(No. of excellent cases+No. of effective cases)/total cases×100%. Recurrence rate of rhinitis after treatment means the recurrence rate six months after treatment of all the cases. Table 19 is about the treatment of rhinitis.

wound of rabbit = conditions: Jin Wei et al. 2011; cited from earlier work
[4] = 30 cases per group, three-month course

For [O][Cl+][O-] [chlorine dioxide solution, chlorine dioxide], the “CD34-Positive Mononuclear Cells (ratio among mononuclear cells, mean±SD)” value ([1]; Day 7 after administration, n=20, NaClO2 7.47% + citric acid 16.7% 1:1 diluted 5 times, 10 ml/body/day femoral artery puncture) was 0.91 ± 0.51 %, the “CD34-Positive Mononuclear Cells (ratio among mononuclear cells, mean±SD)” value ([1]; Day 14 after administration, n=15, diluted solution 10 ml/body/day femoral artery puncture) was 1.4 ± 0.68 % and the “BRt: GFAP-positive cells in treatment group relative to model group = 100%” value ([2]; Day 7) was 148.4%. For the same molecule, the “number of GFAP-positive cells in the SVZ (mean±SD)” value (“number … (mean±SD)” below) ([2]; Day 7, model group 66.3 ± 21.3, sham 2.5 ± 0.15, diluted solution via carotid artery once a day, ten days) was 97.2 ± 29.3 No. of cells/mm2, the “BRt: GFAP-positive cells in treatment group relative to model group = 100%” value ([2]; Day 14) was 134.3% and the “number … (mean±SD)” value ([2]; Day 14, model group 58.6 ± 16.5, sham 1.39 ± 0.02) was 78.2 ± 19.6 No. of cells/mm2. The “BRt: GFAP-positive cells in treatment group relative to model group = 100%” value ([2]; Day 21) was 162.4%, the “number … (mean±SD)” value ([2]; Day 21, model group 27.9 ± 12.4, sham 0) was 45.3 ± 18.3 No. of cells/mm2 and the “presence of NeuN-positive cells (immature neurons)” value ([2]; treatment group, data not shown) was “confirmed”. The “presence of BrdU-positive/GFAP-positive cells in the SVZ region” value ([2]; treatment group, double-immunofluorescent stain, data not shown) was “confirmed”, the “time until new hair equably grew, second period of administration” value (alopecia areata; course of disease more than 12 months, 7 patients) was “equably grow 3-5 days” and the “time until new hair grew along the alopecia areata area, first period of administration” value (alopecia areata; course of disease more than 12 months, 7 patients, NaClO2 7.47% + citric acid 16.7% 1:1, DMSO 1:1, smeared once a day) was 3-5 days after. The “time until new hair grew, second period of administration” value (alopecia areata; course of disease within 12 months, 5 patients) was 3-5 days after, the “time until new hair grew, first period of administration” value (alopecia areata; course of disease within 12 months, 5 patients, NaClO2 7.47% + citric acid 16.7% 1:1, DMSO 1:1, smeared once a day 15-25 days) was 3-5 days after and the “hair fell off, second period of administration” value (alopecia areata; course of disease within 12 months, 5 patients, second period 15-25 days after 2-5 months off) was “About 50% of hair fell”. For the same molecule, the “Effective (No. of cases): symptoms and signs decrease obviously” value [3, 4] was 3, the “Effective rate = (excellent + effective)/total cases” value [3, 4] was 97% and the “Ineffective (No. of cases)” value [3, 4] was 1. The “Excellent (No. of cases): symptoms disappear, signs normal” value ([3]; 30 cases per group, three-month course, test: NaClO2 7.47% + citric acid 16.7%, breathed 1-2 min then nasal spray diluted 5-100 times, once a day 5 to 10 days, control three times a day seven days) was 26, the “No. of Recurrences” value ([3]; six months after treatment) was 3 and the Recurrence rate ([3]; six months after treatment) was 10%. For the same molecule, the “effect on wound in animal test” value (wound of rabbit) was “speeding haemostasis and promoting healing on wound”.
